Measured values published in PMC3004048 (Biochemistry, 2009).
Counter-ions that a name gives are not always drawn.

Key:
Lot6p [1] = target: T1, Lot6p (Saccharomyces cerevisiae, UniProt Q07923); assay: stopped-flow oxidation of reduced enzyme at […] nm; type: biochemical
T1 sequence (Q07923 1-191): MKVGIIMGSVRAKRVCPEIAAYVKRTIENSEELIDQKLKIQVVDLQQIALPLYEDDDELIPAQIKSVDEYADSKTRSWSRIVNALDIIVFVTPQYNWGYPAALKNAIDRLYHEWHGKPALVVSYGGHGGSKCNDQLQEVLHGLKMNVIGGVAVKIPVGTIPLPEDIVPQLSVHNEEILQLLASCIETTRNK

Lot6p [2] = target: T1, Lot6p; type: biochemical

SMILES | k2 (Lot6p [1]) [M⁻¹ s⁻¹] | Kd (Lot6p [2]) [mM]
O=C1c2ccccc2C(=O)c2c1cccc2S(=O)(=O)O [Na-anthraquinone, α-sulfonate] | 1810 | –
O=C1C=CC(=O)C=C1 [1,4-Benzoquinone] | 1.03e+07 | –
O=C1C=C(O)C(=O)c2ccccc21 [2-Hydroxy-1,4-naphthoquinone] | 7580 | –
O=C1C=C(S(=O)(=O)O)c2ccccc2C1=O [1,2-Napthoquinone-4-sulfonic acid, Na salt] | 142000 | –
COC1=C(OC)C(=O)C(C)=CC1=O [Coenzyme Q0] | 6.45e+06 | –
CC1=CC(=O)c2ccccc2C1=O [Menadione] | 677000 | –
NC(=O)C1=CN([C@@H]2O[C@H](COP(=O)(O)OP(=O)(O)OC[C@H]3O[C@@H](n4cnc5c(N)ncnc54)[C@H](O)[C@@H]3O)[C@@H](O)[C@H]2O)C=CC1 [NADH] | – | 9.6 ± 2.4
NC(=O)C1=CN([C@@H]2O[C@H](COP(=O)(O)OP(=O)(O)OC[C@H]3O[C@@H](n4cnc5c(N)ncnc54)[C@H](OP(=O)(O)O)[C@@H]3O)[C@@H](O)[C@H]2O)C=CC1 [NADPH] | – | 12.5 ± 1.1
